“And” between values parts separate entries of the source, which are not always exact repeats. Identical values can stand only once. Like-named read-outs stand apart in the source and are kept apart here.
Assays:
MDBK cells [1] = experiment: XTT cytopathicity assay, uninfected cells (cytotoxicity); format: cell-based, bovine; settings: for CC50: uninfected MDBK cells, 6 days
Protocol: (§1) MDBK cells were seeded into 96-well cell culture plates (Costar® 3596, Corning Incorp., USA) and allowed to grow to confluency. The cells were washed twice in warm phosphate buffered saline (PBS) and then infected with BVDV NADL (100 pfu/well) in 100 μl of DMEM supplemented with 5% horse serum, 2 mM L-glutamine, 50 U/ml penicillin and 50 μg/ml streptomycin. Some wells were mock infected to act as controls. A further 100 μl of DMEM supplemented as above, but containing different concentrations of test compound or no compound was then added to each well. Triplicate wells were used for each compound concentration. In parallel, uninfected cells were treated with compound to assess cytotoxicity. The plates were then incubated at 37° C. with 5% CO2. After 6 days 25 μl of a 1 mg/ml 2,3-bis[2-methoxy-4-nitro-5-sulphophenyl]-2H-tetrazolium-5-carboxanilide (XTT)/25 μM phenazine methosulphate (PMS) solution (XTT and PMS purchased from Sigma, Poole, Dorset, UK) was then added to each well and the plates incubated for 2 hours at 37° C. with 5% CO2. The absorbance was then determined at 450 nm. Data was plotted as O. D versus the log of the concentration of the compound and the 50% inhibitory concentration (IC50) computed.

BVDV NADL [2] = experiment: XTT cytopathicity assay, infected cells; format: cell-based, bovine viral diarrhoea virus; settings: for protection of MDBK cells against virus-induced cell death (cytopathic effect of BVDV): FIG. 2
Protocol: The cells were washed twice in warm phosphate buffered saline (PBS) and then infected with BVDV NADL (100 pfu/well) in 100 μl of DMEM supplemented with 5% horse serum, 2 mM L-glutamine, 50 U/ml penicillin and 50 μg/ml streptomycin. Some wells were mock infected to act as controls. A further 100 μl of DMEM supplemented as above, but containing different concentrations of test compound or no compound was then added to each well. Triplicate wells were used for each compound concentration. In parallel, uninfected cells were treated with compound to assess cytotoxicity. The plates were then incubated at 37° C. with 5% CO2. […] The absorbance was then determined at 450 nm.

BVDV NADL [3] = experiment: Plaque reduction assay in MDBK cells; format: cell-based, bovine viral diarrhoea virus; settings: for inhibition of formation of BVDV plaques / IC50: MDBK cells; for inhibition of formation of BVDV plaques: FIG. 1; for concentrations at which only partial inhibition was shown: parallel plaque reduction experiments
Protocol: MDBK cells (NBL-1) (ATCC CCL22) derived from bovine kidney and cytopathic (cp) BVDV (strain NADL) (ATCC VR-534) were available from the American Type Culture Collection (ATCC).
(§2) MDBK cells were seeded into 6-well cell culture plates (Nunclon™, Nunc, Denmark) and allowed to grow to confluency. The cells are washed twice in warm phosphate buffered saline (PBS) and then infected with BVDV NADL (150 pfu/well) in 0.25 ml PBS containing 1% horse serum and 1 mM MgCl2. The cell culture plates were then incubated at 37° C. for one hour with 5% CO2 and the plates rocked every 15-20 minutes. The virus inoculum was then removed and replaced with 3.0 ml of 0.5% low-gelling temperature agarose overlay diluted in DMEM supplemented with 5% horse serum, 2 mM L-glutamine, 50 U/ml penicillin and 50 Lg/ml streptomycin and containing different concentrations of test compound or no compound. At least duplicate or triplicate wells were used for each concentration of test compound. The agarose was allowed to solidify at room temperature for 15 minutes and then incubated at 37° C. with 5% CO2. After 3 days incubation the cells were fixed by adding 1.5 ml of a […] solution over the agar overlay and leaving overnight. The agar was gently removed from the wells and the cells stained with 0.3% methylene blue in PBS for 10 minutes at room temperature. The excess stain was removed and the cells washed with PBS prior to drying of the plates and counting of the viral plaques microscopically. Dose response lines were plotted from the mean number of plaques present versus the log of the concentration of the compound. The 50% Inhibitory concentration (IC50) was computed after linear regression analysis.

MDBK cells [4] = experiment: Cytotoxicity in plaque reduction assay, microscopic examination of the cell monolayers; format: cell-based, bovine
Protocol: as §2
(§3) There was no sign of cytotoxicity at concentrations up to 1000 μM as judged by microscopic examination of the cell monolayers.

BVDV = experiment: XTT cytopathicity assay, Bucast in combination with interferon alpha; format: cell-based, bovine viral diarrhoea virus
Protocol: as §1
The combination indexes (CI) were calculated using the formula of Suhnel (Antiviral Research, 13, 23-40). A CI value of less than 1 indicates a synergistic interaction and values of less than 0.8 are considered to indicate a statistically significant result.

[5] = XTT cytopathicity assay, uninfected cells (cytotoxicity); format: cell-based, bovine; settings: bovine
Protocol: as §1

[6] = Cytotoxicity in plaque reduction assay, microscopic examination of the cell monolayers; format: cell-based, bovine; settings: bovine
Protocol: as §2, §3

[7] = individual experiments, MOI = 0.01, read-out: *IC50
[8] = individual experiments, 150 pfu/well, 3 days, read-out: IC50
[9] = mean of experiments, read-out: Mean IC50 (μM) ± SD
[10] = MDBK cell monolayers, plaque reduction assay

| Compound | cytotoxicity to uninfected treated cells (MDBK cells [1]; FIG. 2) | CC50 (MDBK cells [1]) [µM] | protection of MDBK cells against virus-induced cell death (cytopathic effect of BVDV) (BVDV NADL [2]) | IC50 (BVDV NADL [2]; MOI 0.0001, read-out: IC50) [µM] | IC50 (BVDV NADL [2]; MOI 0.001, read-out: IC50) [µM] | IC50 (BVDV NADL [2]; MOI 0.01, read-out: IC50) | IC50 (BVDV NADL [2]; MOI 0.1, read-out: IC50) | IC50 (BVDV NADL [2]; [7]) | inhibition of formation of BVDV plaques (BVDV NADL [3]) | IC50 (BVDV NADL [3]; [8]) | IC50 (BVDV NADL [3]; [9]) [µM] | CC50 (MDBK cells [4]; [10]) [µM] | concentrations at which only partial inhibition was shown (BVDV NADL [3]) [µM] | further results |
| --- | --- | --- | --- | --- | --- | --- | --- | --- | --- | --- | --- | --- | --- | --- |
| CCCC(=O)O[C@H]1CN2CC[C@H](O)[C@@H]2[C@@H](O)[C@@H]1O [Bucast, 60-butanoylcastanospermine] | no cytotoxicity | > 300 | protected MDBK cells against virus-induced cell death | 5 | 40 | 60 µM and 30 µM | 200 µM and 170 µM | 60 µM (2×) and 30 µM and 70 µM and 40 µM | inhibited the formation of BVDV plaques in a dose dependent manner | 10 µM (2×) and 20 µM and 25 µM | 16.2 | > 1000 |  | IC50 (BVDV NADL [2]; mean, MOI = 0.01, read-out: mean IC50): 36 µM and 52 µM; times more potent than castanospermine (BVDV NADL [3]; ratio of mean IC50): approximately 13 times; IC50 (BVDV; fixed interferon α 0 IRU/well): 52 ± 16.4 µM; IC50 (BVDV; fixed interferon α 0.125 IRU/well): 13 µM; IC50 (BVDV; fixed interferon α 0.25 IRU/well): 4 µM; IC50 (BVDV; fixed interferon α 0.5 IRU/well): 3 µM |
| Interferon α |  |  |  |  |  |  |  |  |  |  |  |  |  | IC50 (BVDV NADL [2]; interferon alone): 1.3 interferon resistance units (IRU) per well; IC50 Interferon α (IRU/well) (BVDV; fixed Bucast 0 μM): 1.3 IRU/well; IC50 Interferon α (IRU/well) (BVDV; fixed Bucast 5 μM): 0.22 IRU/well; IC50 Interferon α (IRU/well) (BVDV; fixed Bucast 10 μM): 0.12 IRU/well |
| OC1CN2CC[C@H](O)[C@@H]2C(O)[C@@H]1O (stereo partly drawn) [Castanospermine, [1S-(1α, 6β,7α,8β,8αβ)]-octahydro-1,6,7,8-indoli-zinetetrol] |  |  | protected MDBK cells against virus-induced cell death |  |  |  |  | 500 µM | inhibited the formation of BVDV plaques in a dose dependent manner | 190 µM and 280 µM |  |  |  | cytotoxicity to uninfected treated cells (MDBK cells [1]): no cytotoxicity; CC50 at 6 days [5]: > 1000 µM; IC50 (BVDV NADL [2]; Bovine viral diarrhea virus isolates and strains, in Bos taurus, individual experiments, MOI = 0.01, read-out: *IC50): 300 µM; IC50 (BVDV NADL [2]; Bovine viral diarrhea virus isolates and strains, in Bos taurus, read-out: mean IC50 (μM), mean, MOI = 0.01): 400 µM; IC50 (BVDV NADL [3]; Bovine viral diarrhea virus isolates and strains, MDBK, in Bos taurus, 72 h, individual experiments, 150 pfu/well, 3 days, read-out: IC50): 180 µM; IC50 (BVDV NADL [3]; Bovine viral diarrhea virus isolates and strains, MDBK, in Bos taurus, mean of experiments, read-out: Mean IC50 (μM) ± SD): 217 µM; CC50 at 3 days [6]: > 1000 µM |
| CCCCN1C[C@H](O)[C@@H](O)[C@H](O)[C@H]1CO [N-Butyl-DNJ, N-butyl-deoxynojirimycin] | no cytotoxicity | > 1000 | neither N-butyl-DNJ or N-nonyl-DNJ demonstrated any protection | 55 | > 300 | > 300 µM | > 300 µM | > 1000 µM |  | > 300 µM and 250 µM |  | > 300 | > 100 | fold less potent than Bucast (BVDV NADL [2]; very low MOI): 10 fold |
| CCCCCCCCCN1C[C@H](O)[C@@H](O)[C@H](O)[C@H]1CO [N-Nonyl-DNJ, N-nonyl-deoxynojirimycin] | clearly cytotoxic | 120 | neither N-butyl-DNJ or N-nonyl-DNJ demonstrated any protection |  |  |  |  | 60 µM and > 100 µM |  | 90 µM and 120 µM | 105 |  | > 300 | CC50 (μM) (MDBK cells [4]; [10]): Toxic @ 300; cytotoxicity to cells (MDBK cells [4]; at a concentration of 300 μM): clearly cytotoxic |
